Like-named read-outs stand apart in the source and are kept apart here.
Key:
[1] = tested on: E. coli BW25113 overexpression strains (ASKA plasmids); test: Minimum inhibitory concentration (MIC), serial broth dilution, single-gene overexpression strains vs empty-vector control; format: cell-based, Escherichia coli; settings: for Relative MIC: broth dilution, MS medium, 100 µM IPTG, 30 °C, 20-24 h, OD600, 3 replicates
In short: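 E. coli overexpression strains grown in MS medium with chloramphenicol, induced with 100 µM IPTG for 1 h at 30 °C, then about half-million cells inoculated into 12-step AMP dilutions (typically 1.2-fold steps). OD600 read after 20–24 h at 30 °C with shaking; triplicate strains compared with empty-vector control.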

[2] = tested on: AMP-evolved E. coli lines; test: Cross-resistance / collateral sensitivity: relative MIC change of 38 laboratory-evolved AMP-resistant lines vs parental strain; format: cell-based, Escherichia coli; settings: AMP-adapted line PR39_10; measured here
[3] = tested on: AMP-evolved E. coli lines; settings: ref Spohn et al 2019, cited from earlier work
Source text: Supplement 41467_2019_13618_MOESM13_ESM.xlsx, sheet "Figure 6 and S15" | column: A comprehensive dataset of antimicrobial susceptibility of AMP-adapted lines to antimicrobial peptides (AMPs).

[4] = tested on: bacterial species in which the gene showed activity; settings: cited from earlier work

Sequence: ILPWKWPWWPWRR [IND, Indolicidin, antimicrobial peptide from bovine neutrophils; cluster C3]
- Average relative change in MIC ([1]; mlaD overexpression strain relative to control (wild-type+empty vector), 3 replicates each, from optical density values of serial dilution plates, AMP in µg ml-1): 0.82
- Relative MIC ([1]; overexpression strain cvpA, MIC of overexpression strain / MIC of empty-plasmid control): 0.76
- Relative MIC ([1]; overexpression strain hyfA, MIC of overexpression strain / MIC of empty-plasmid control): >1.2
- Relative MIC ([1]; overexpression strain mlaD, MIC of the overexpression strain / MIC of the control strain (wild-type carrying the empty plasmid)): 0.78
- Relative MIC ([1]; overexpression strain murA, MIC of overexpression strain / MIC of empty-plasmid control): 0.8
- Relative MIC ([1]; overexpression strain mzrA, MIC of overexpression strain / MIC of empty-plasmid control): 0.62
- Relative MIC ([1]; overexpression strain nikB, MIC of overexpression strain / MIC of empty-plasmid control): 0.76
- Relative MIC ([1]; overexpression strain ptsN, MIC of overexpression strain / MIC of empty-plasmid control): 0.76
- Relative MIC ([1]; overexpression strain rpoH, MIC of overexpression strain / MIC of empty-plasmid control): 0.64
- Relative MIC ([1]; overexpression strain uhpC, MIC of overexpression strain / MIC of empty-plasmid control): 0.8
- Relative MIC ([1]; overexpression strain yiaJ, MIC of overexpression strain / MIC of empty-plasmid control): 0.8
- Relative MIC ([1]; overexpression strain ytjB, MIC of overexpression strain / MIC of empty-plasmid control): 0.8
- Relative change in MIC (MIC of the AMP-adpated line / MIC of the ancestral strain) [2]: 1.3
- Relative change in MIC (MIC of the AMP-adpated line / MIC of the ancestral strain) ([3]; AMP-adapted line BAC5_3): 1.2
- Relative change in MIC (MIC of the AMP-adpated line / MIC of the ancestral strain) ([3]; AMP-adapted line BAC5_5): 0.8
- Relative change in MIC (MIC of the AMP-adpated line / MIC of the ancestral strain) ([3]; AMP-adapted line BAC5_7): 0.9
- Relative change in MIC (MIC of the AMP-adpated line / MIC of the ancestral strain) ([3]; AMP-adapted line BAC5_10): 1
- Relative change in MIC (MIC of the AMP-adpated line / MIC of the ancestral strain) ([3]; AMP-adapted line CAP18_2): 1
- Relative change in MIC (MIC of the AMP-adpated line / MIC of the ancestral strain) ([3]; AMP-adapted line CAP18_5): 0.6
- Relative change in MIC (MIC of the AMP-adpated line / MIC of the ancestral strain) ([3]; AMP-adapted line CAP18_6): 0.6
- Relative change in MIC (MIC of the AMP-adpated line / MIC of the ancestral strain) ([3]; AMP-adapted line CAP18_8): 1
- Relative change in MIC (MIC of the AMP-adpated line / MIC of the ancestral strain) ([3]; AMP-adapted line CAP18_10): 0.8
- Relative change in MIC (MIC of the AMP-adpated line / MIC of the ancestral strain) ([3]; AMP-adapted line HBD3_3): 1.3
- Relative change in MIC (MIC of the AMP-adpated line / MIC of the ancestral strain) ([3]; AMP-adapted line HBD3_6): 1
- Relative change in MIC (MIC of the AMP-adpated line / MIC of the ancestral strain) ([3]; AMP-adapted line HBD3_8): 0.8
- Relative change in MIC (MIC of the AMP-adpated line / MIC of the ancestral strain) ([3]; AMP-adapted line HBD3_10): 1.2
- Relative change in MIC (MIC of the AMP-adpated line / MIC of the ancestral strain) ([3]; AMP-adapted line LL37_1): 0.8
- Relative change in MIC (MIC of the AMP-adpated line / MIC of the ancestral strain) ([3]; AMP-adapted line LL37_3): 0.8
- Relative change in MIC (MIC of the AMP-adpated line / MIC of the ancestral strain) ([3]; AMP-adapted line LL37_6): 0.6
- Relative change in MIC (MIC of the AMP-adpated line / MIC of the ancestral strain) ([3]; AMP-adapted line LL37_7): 1
- Relative change in MIC (MIC of the AMP-adpated line / MIC of the ancestral strain) ([3]; AMP-adapted line LL37_10): 0.8
- Relative change in MIC (MIC of the AMP-adpated line / MIC of the ancestral strain) ([3]; AMP-adapted line PEX_1): 1
- Relative change in MIC (MIC of the AMP-adpated line / MIC of the ancestral strain) ([3]; AMP-adapted line PEX_4): 1.4
- Relative change in MIC (MIC of the AMP-adpated line / MIC of the ancestral strain) ([3]; AMP-adapted line PEX_5): 1
- Relative change in MIC (MIC of the AMP-adpated line / MIC of the ancestral strain) ([3]; AMP-adapted line PEX_6): 1
- Relative change in MIC (MIC of the AMP-adpated line / MIC of the ancestral strain) ([3]; AMP-adapted line PEX_7): 1.2
- Relative change in MIC (MIC of the AMP-adpated line / MIC of the ancestral strain) ([3]; AMP-adapted line PR39_1): 1.1
- Relative change in MIC (MIC of the AMP-adpated line / MIC of the ancestral strain) ([3]; AMP-adapted line PR39_2): 1
- Relative change in MIC (MIC of the AMP-adpated line / MIC of the ancestral strain) ([3]; AMP-adapted line PR39_5): 1.3
- Relative change in MIC (MIC of the AMP-adpated line / MIC of the ancestral strain) ([3]; AMP-adapted line PR39_7): 0.9
- Relative change in MIC (MIC of the AMP-adpated line / MIC of the ancestral strain) ([3]; AMP-adapted line PROA_2): 1.1
- Relative change in MIC (MIC of the AMP-adpated line / MIC of the ancestral strain) ([3]; AMP-adapted line PROA_3): 0.8
- Relative change in MIC (MIC of the AMP-adpated line / MIC of the ancestral strain) ([3]; AMP-adapted line PROA_7): 0.8
- Relative change in MIC (MIC of the AMP-adpated line / MIC of the ancestral strain) ([3]; AMP-adapted line PROA_8): 1.1
- Relative change in MIC (MIC of the AMP-adpated line / MIC of the ancestral strain) ([3]; AMP-adapted line PROA_9): 1
- Relative change in MIC (MIC of the AMP-adpated line / MIC of the ancestral strain) ([3]; AMP-adapted line PXB_2): 2.1
- Relative change in MIC (MIC of the AMP-adpated line / MIC of the ancestral strain) ([3]; AMP-adapted line PXB_5): 3
- Relative change in MIC (MIC of the AMP-adpated line / MIC of the ancestral strain) ([3]; AMP-adapted line PXB_6): 3
- Relative change in MIC (MIC of the AMP-adpated line / MIC of the ancestral strain) ([3]; AMP-adapted line PXB_8): 2.7
- Relative change in MIC (MIC of the AMP-adpated line / MIC of the ancestral strain) ([3]; AMP-adapted line PXB_10): 1.6
- Gene that modulates bacterial susceptibility to the AMP ([4]; Bordetella pertussis, ref http://www.ncbi.nlm.nih.gov/pmc/articles/PMC4136009/): lgmA, IgmB, IgmC
- Gene that modulates bacterial susceptibility to the AMP ([4]; Staphylococcus aureus, ref http://onlinelibrary.wiley.com/doi/10.1111/j.1365-2958.2007.05986.x/epdf): apsS

Reference: paper PMC6915728 (Nature Communications, 2019)
